Source: article PMC4250310 (Bioorganic & medicinal chemistry letters, 2014)
pEC50: −log10 of the molar value. Converted amounts (≈) assume the structure as drawn.

Tests used:
[1] = system: PC12-G93A-YFP cell line; experiment: cytotoxicity protection assay against mutant SOD1-induced cytotoxicity; type: cell-based; conditions: read-out: Potency (EC50)
[2] = physchem
[3] = in vitro; conditions: mouse, microsomes
[4] = in vitro; conditions: plasma
[5] = ref our previous work; cited from earlier work

Question: With `O=C1CC(=O)N(CCc2ccccc2)C(=O)N1CCc1ccccc1` [Compound 1, 1,3-bis(2-phenylethyl)pyrimidine-2,4,6(1H,3H,5H)-trione] as the molecule, how does the pEC50 [1] read?
Answer: Its pEC50 is 5.77.

Question: What about the solubility [2] of the same molecule?
Answer: The solubility was 31.3 µM (≈ 10.5 µg/mL).

Question: What about the half-life [3] of the same molecule?
Answer: Its half-life is 16 min.

Question: What about the half-life [4] of the same molecule?
Answer: Its half-life is 63.5 min.

Question: And the maximum tolerated dose [5]?
Answer: Its maximum tolerated dose is 100 mg/kg.
